Data published in US8691855B2, “Compounds, isomer thereof, or pharmaceutically acceptable salts thereof as vanilloid receptor antagonist and pharmaceutical compositions containing the same” (Amorepacific Corporation, priority 2008, dated 2014).

The molecules below were run against T1, vanilloid receptor (Rattus norvegicus, UniProt O35433) (assay: 45Ca influx test (antagonist calcium uptake test) in rat DRG neurons stimulated with capsaicin). Conditions: DRG neuron; @1 μM; neonatal SD rat DRG neurons; capsaicin 0.5 μM; read-out: Antagonist Calcium Uptake Test, percent inhibition of capsaicin response.
T1 construct: DRG nerve cells from the primary culture of 2 days were equilibrated; endogenous in cells; host or cells: primary culture of dorsal root ganglion neurons from neonatal SD rats
T1 sequence (O35433 whole entry): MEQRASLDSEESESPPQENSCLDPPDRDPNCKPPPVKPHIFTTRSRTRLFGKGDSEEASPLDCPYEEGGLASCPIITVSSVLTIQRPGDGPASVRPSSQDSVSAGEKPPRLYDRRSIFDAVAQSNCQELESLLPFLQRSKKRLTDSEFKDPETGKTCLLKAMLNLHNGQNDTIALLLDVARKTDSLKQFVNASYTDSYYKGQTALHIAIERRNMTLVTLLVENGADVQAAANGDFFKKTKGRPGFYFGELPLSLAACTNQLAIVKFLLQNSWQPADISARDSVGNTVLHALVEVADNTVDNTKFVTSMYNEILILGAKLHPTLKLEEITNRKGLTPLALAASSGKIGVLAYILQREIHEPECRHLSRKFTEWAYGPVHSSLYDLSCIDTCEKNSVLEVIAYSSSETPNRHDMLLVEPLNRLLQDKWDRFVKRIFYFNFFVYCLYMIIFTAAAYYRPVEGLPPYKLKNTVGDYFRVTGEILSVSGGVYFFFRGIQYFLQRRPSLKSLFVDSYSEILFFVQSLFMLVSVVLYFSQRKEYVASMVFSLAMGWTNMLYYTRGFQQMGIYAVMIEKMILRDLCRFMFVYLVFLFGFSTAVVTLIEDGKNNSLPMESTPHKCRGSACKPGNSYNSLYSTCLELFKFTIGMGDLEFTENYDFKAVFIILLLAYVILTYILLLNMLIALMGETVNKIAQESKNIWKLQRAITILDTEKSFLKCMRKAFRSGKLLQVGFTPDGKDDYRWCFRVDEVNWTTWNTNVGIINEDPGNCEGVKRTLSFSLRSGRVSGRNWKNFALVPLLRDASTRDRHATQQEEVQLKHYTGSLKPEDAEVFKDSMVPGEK
Format: cell-based
Description: 1) Separation of spinal dorsal root ganglia (DRG) in newborn rats and primary culture thereof
Neonatal (2-3 clay old or younger than 2-3 day old) SD rats were put in ice for 5 minutes to anesthetize and disinfected with 70% ethanol. DRG of all part of spinal cord were dissected (Wood et al., 1988, J. Neurosci. 8, pp 3208-3220) and collected in DME/F12 medium to which 1.2 g/l sodium bicarbonate and 50 mg/l gentamycin were added. The DRG were incubated sequentially at 37° C. for 30 mins in 200 U/ml collagenase and 2.5 mg/ml trypsin, separately. The ganglia were washed twice with DME/F12 medium supplemented with 10% horse serum, triturated through a fire-polished Pasteur pipette, filtered through Nitex 80 membrane to obtain single cell suspension and the suspension was washed once more. This was subjected to centrifugation, then resuspended in cell culture medium at certain level of cell density. As the cell culture medium, DME/F12 medium supplemented with 10% horse serum was diluted with identical medium conditioned by C6 glioma cells 2 clays on a confluent monolayer (1:1), and NGF (Nerve Growth Factor) was added to adjust 200 ng/ml as final concentration. After the cells were grown 2 days in medium where cytosine arabinoside (Ara-C, 100 μM) was added to kill dividing nonneuronal cells, medium was changed to one without Ara-C. The resuspended cells were plated at a density of 1500-2000 neurons/well onto Terasaki plates previously coated with 10 μg/ml poly-D-ornithine.
2) ^45Ca Influx Experiments
DRG nerve cells from the primary culture of 2 days were equilibrated by washing 4 times with HEPES (10 mM, pH 7.4)-buffered Ca^2+, Mg^2+-free HBSS (H-HBSS). The solution in each well was removed from the individual well. Medium containing the test compound plus capsaicin (final concentration 0.5 μM) and ^45Ca (final concentration 10 μCi/ml) in H-HBSS was added to each well and incubated at room temperature for 10 nuns. Terasaki plates were washed five times with H-HBSS and dried at room temperature. To each well, 0.3% SDS (10 μl) was added to elute ^45Ca. After the addition of scintillation cocktail of into each well, the amount of ^45Ca influx into neuron was measured by counting radioactivity. Antagonistic activities of test compounds against vanilloid receptor were calculated as percent of the inhibition of maximal response of capsaicin at a concentration of 0.5 μM.
Molecule `C#Cc1cc(CNC(=O)c2ccc(-c3cccc(C(F)(F)F)c3)o2)cc(F)c1NS(C)(=O)=O` [Example 104, 5-(3-Trifluoromethyl-phenyl)-furan-2-carboxylic acid 3-ethynyl-5-fluoro-4-methanesulfonylamino-benzylamide] has an inhibition at 1 µM of 100%.

Same assay, conditions: DRG neuron; @3 μM; neonatal SD rat DRG neurons; capsaicin 0.5 μM; read-out: Antagonist Calcium Uptake Test, percent inhibition of capsaicin response
With `C=Cc1cc(-c2ccc(C(=O)N[C@H](C)c3cc(F)c(NS(C)(=O)=O)c(F)c3)o2)cc(C(F)(F)F)c1` [Example 114, 5-(3-Trifluoromethyl-5-vinyl-phenyl)-furan-2-carboxylic acid [1-(3,5-difluoro-4-methanesulfonylamino-phenyl)-ethyl]-amide] the inhibition at 3 µM was 93%.

Same assay, conditions: neonatal SD rat DRG neurons; capsaicin 0.5 μM; 45Ca
Molecule `C[C@@H](NC(=O)c1coc(Oc2ccc(C(F)(F)F)cc2)n1)c1cc(F)c(NS(C)(=O)=O)c(F)c1` [Example 6, 2-(4-Trifluoromethyl-phenoxy)-oxazole-4-carboxylic acid [1-(3,5-difluoro-4-methanesulfonylamino-phenyl)-ethyl]-amide] has an IC50 of 5000 nM.
For `Cc1cccc(-c2nc(C(=O)N[C@H](C)c3cc(F)c(NS(C)(=O)=O)c(F)c3)co2)c1C` [Example 90, 2-(2,3-Dimethyl-phenyl)-oxazole-4-carboxylic acid [1-(3,5-difluoro-4-methanesulfonylamino-phenyl)-ethyl]-amide], the IC50 was 910 nM.
`CCC1CCc2c(Oc3nc(C(=O)N[C@H](C)c4cc(F)c(NS(C)(=O)=O)c(F)c4)co3)cccc21` (some centres unmarked) [Example 38, 2-(1-Ethyl-indan-4-yloxy)-oxazole-4-carboxylic acid [1-(3,5-difluoro-4-methanesulfonylamino-phenyl)-ethyl]-amide] was tested, and the IC50 was 400 nM.
In the case of `Cc1ccc(C(C)C)cc1Oc1nc(C(=O)N[C@H](C)c2cc(F)c(NS(C)(=O)=O)c(F)c2)co1` [Example 47, 2-(5-Isopropyl-2-methyl-phenoxy)-oxazole-4-carboxylic acid [1-(3,5-difluoro-4-methanesulfonylamino-phenyl)-ethyl]-amide], the IC50 is reported as 620 nM.
`C[C@@H](NC(=O)c1coc(Oc2cc(C(F)(F)F)ccc2C2CC2)n1)c1cc(F)c(NS(C)(=O)=O)c(F)c1` [Example 54, 2-(2-Cyclopropyl-5-trifluoromethyl-phenoxy)-oxazole-4-carboxylic acid [1-(3,5-difluoro-4-methanesulfonylamino-phenyl)-ethyl]-amide] was tested, and the IC50 was 2900 nM.
Work on `C[C@@H](NC(=O)c1coc(Oc2ccc3ncccc3c2)n1)c1cc(F)c(NS(C)(=O)=O)c(F)c1` [Example 23, 2-(Quinolin-6-yloxy)-oxazole-4-carboxylic acid [1-(3,5-difluoro-4-methanesulfonylamino-phenyl)-ethyl]-amide] yielded an IC50 of 11900 nM.
Work on `C[C@@H](NC(=O)c1coc(Oc2cccc(C3CCCC3)c2)n1)c1cc(F)c(NS(C)(=O)=O)c(F)c1` [Example 51, 2-(3-Cyclopentyl-phenoxy)-oxazole-4-carboxylic acid [1-(3,5-difluoro-4-methanesulfonylamino-phenyl)-ethyl]-amide] yielded an IC50 of 1100 nM.
In the case of `CS(=O)(=O)Nc1c(F)cc(CNC(=O)c2ccc(-c3cccc(C(F)(F)F)c3)o2)cc1F` [Example 110, 5-(3-Trifluoromethyl-phenyl)-furan-2-carboxylic acid 3,5-difluoro-4-methanesulfonylamino-benzylamide], the IC50 is reported as 620 nM.
For `C[C@@H](NC(=O)c1coc(Oc2cccc(Cl)c2)n1)c1cc(F)c(NS(C)(=O)=O)c(F)c1` [Example 16, 2-(3-Chloro-phenoxy)-oxazole-4-carboxylic acid [1-(3,5-difluoro-4-methanesulfonylamino-phenyl)-ethyl]-amide], the IC50 was 770 nM.
`CC(C)c1cccc(Oc2nc(C(=O)N[C@H](C)c3cc(F)c(NS(C)(=O)=O)c(F)c3)cs2)c1` [Example 31, 2-(3-Isopropyl-phenoxy)-thiazole-4-carboxylic acid [1-(3,5-difluoro-4-methanesulfonylamino-phenyl)-ethyl]-amide] was tested, and the IC50 was 2000 nM.
With `C[C@@H](NC(=O)c1coc(Oc2cccc([N+](=O)[O-])c2)n1)c1cc(F)c(NS(C)(=O)=O)c(F)c1` [Example 18, 2-(3-Nitro-phenoxy)-oxazole-4-carboxylic acid [1-(3,5-difluoro-4-methanesulfonylamino-phenyl)-ethyl]-amide] the IC50 was 2900 nM.
With `CS(=O)(=O)Nc1c(F)cc(CNC(=O)c2csc(Oc3ccc(C(F)(F)F)cc3)n2)cc1F` [Example 14, 2-(4-Trifluoromethyl-phenoxy)-thiazole-4-carboxylic acid 3,5-difluoro-4-methanesulfonylamino-benzylamide] the IC50 was 1500 nM.
In the case of `C[C@@H](NC(=O)c1coc(Oc2cc(C(F)(F)F)ccn2)n1)c1cc(F)c(NS(C)(=O)=O)c(F)c1` [Example 25, 2-(4-Trifluoromethyl-pyridin-2-yloxy)-oxazole-4-carboxylic acid [1-(3,5-difluoro-4-methanesulfonylamino-phenyl)-ethyl]-amide], the IC50 is reported as greater than 10000 nM.
In the case of `C[C@@H](NC(=O)c1coc(-c2cccc(-c3ccccc3)c2)n1)c1cc(F)c(NS(C)(=O)=O)c(F)c1` [Example 70, 2-Biphenyl-3-yl-oxazole-4-carboxylic acid [1-(3,5-difluoro-4-methanesulfonylamino-phenyl)-ethyl]-amide], the IC50 is reported as 870 nM.
With `CCCc1cc(C(F)(F)F)ccc1Oc1nc(C(=O)N[C@H](C)c2cc(F)c(NS(C)(=O)=O)c(F)c2)co1` [Example 33, 2-(2-Propyl-4-trifluoromethyl-phenoxy)-oxazole-4-carboxylic acid [1-(3,5-difluoro-4-methanesulfonylamino-phenyl)-ethyl]-amide] the IC50 was 4900 nM.
With `C#Cc1cccc(Oc2nc(C(=O)N[C@H](C)c3cc(F)c(NS(C)(=O)=O)c(F)c3)co2)c1` [Example 27, 2-(3-Ethynyl-phenoxy)-oxazole-4-carboxylic acid [1-(3,5-difluoro-4-methanesulfonylamino-phenyl)-ethyl]-amide] the IC50 was 1600 nM.
Work on `C=C(C)c1cc(Oc2nc(C(=O)N[C@H](C)c3cc(F)c(NS(C)(=O)=O)c(F)c3)co2)cc(C(F)(F)F)c1` [Example 43, 2-(3-Isopropenyl-5-trifluoromethyl-phenoxy)-oxazole-4-carboxylic acid [1-(3,5-difluoro-4-methanesulfonylamino-phenyl)-ethyl]-amide] yielded an IC50 of 960 nM.
Work on `C[C@@H](NC(=O)c1coc(Oc2cccc3cccnc23)n1)c1cc(F)c(NS(C)(=O)=O)c(F)c1` [Example 24, 2-(Quinolin-8-yloxy)-oxazole-4-carboxylic acid [1-(3,5-difluoro-4-methanesulfonylamino-phenyl)-ethyl]-amide] yielded an IC50 greater than 10000 nM.
`C[C@@H](NC(=O)c1ccc(-c2cccc(C(F)(F)F)c2)s1)c1cc(F)c(NS(C)(=O)=O)c(F)c1` (stereo in doubt) [Example 73, 5-(3-Trifluoromethyl-phenyl)-thiophene-2-carboxylic acid [1-(3,5-difluoro-4-methanesulfonylamino-phenyl)-ethyl]-amide] was tested, and the IC50 was 10500 nM.
`C[C@@H](NC(=O)c1coc(-c2ccc(C(C)(C)C)cc2)n1)c1cc(F)c(NS(C)(=O)=O)c(F)c1` [Example 75, 2-(4-tort-Butyl-phenyl)-oxazole-4-carboxylic acid [1-(3,5-difluoro-4-methanesulfonylamino-phenyl)-ethyl]-amide] showed an IC50 of 2400 nM.
With `Cc1cc(C)cc(-c2nc(C(=O)N[C@H](C)c3cc(F)c(NS(C)(=O)=O)c(F)c3)co2)c1` [Example 99, 2-(3,5-Dimethyl-phenyl)-oxazole-4-carboxylic acid [1-(3,5-difluoro-4-methanesulfonylamino-phenyl)-ethyl]-amide] the IC50 was 2000 nM.
`C[C@@H](NC(=O)c1cc(-c2ccc(Br)cc2)oc1C(F)(F)F)c1cc(F)c(NS(C)(=O)=O)c(F)c1` [Example 62, 5-(4-Bromo-phenyl)-2-trifluoromethyl-furan-3-carboxylic acid [1-(3,5-difluoro-4-methanesulfonylamino-phenyl)-ethyl]-amide] showed an IC50 of 440 nM.
Molecule `C[C@@H](NC(=O)c1ccc(-c2cccc(C(F)(F)F)c2)o1)c1ccc(NS(C)(=O)=O)c(F)c1` [Example 111, 5-(3-Trifluoromethyl-phenyl)-furan-2-carboxylic acid [1-(3-fluoro-4-methanesulfonylamino-phenyl)-ethyl]-amide] has an IC50 of 240 nM.
`C=C1CCCc2c(Oc3nc(C(=O)N[C@H](C)c4cc(F)c(NS(C)(=O)=O)c(F)c4)co3)cccc21` [Example 37, 2-(5-Methylene-5,6,7,8-tetrahydro-naphthalen-1-yloxy)-oxazole-4-carboxylic acid [1-(3,5-difluoro-4-methanesulfonylamino-phenyl)-ethyl]-amide] gave an IC50 of 410 nM.
